Assay results taken from US5520901A, “Method for the recovery of iodine from an environment” (General Electric Company, priority 1993, dated 1996).

What was measured:
[1] = Final pH of treated solution; type: physicochemical; conditions: 0.2 grams of reagent; water 4.36
Excerpt: The basicity of certain reagents was examined in terms of the reagents' relative ability to recover iodine. […] The amount of each reagent was 0.2 grams.

[2] = cited from earlier work

Final pH of Treated Solution [1] | SMILES | Water Solubility [2] [g/100 cc]
7.12 | O=C(O)O [CaCO3, Calcium carbonate] | –
12.34 | [O]=[Ca] [CaO, calcium oxide] | 0.131
8.86 | [Mg+2].[OH-].[OH-] [Mg(OH)2, magnesium hydroxide] | –
7.96 | O=C(O)O [MgCO3, magnesium carbonate] | –
7.33 | [O]=[Mg] [MgO, magnesium oxide] | 0.001

SMILES | Final pH of Treated Solution [1] | Water Solubility [2] [g/100 cc]
[Ca+2].[OH-].[OH-] [Ca(OH)2, calcium hydroxide] | 12.23 | –
